In ChEMBL document CHEMBL1201862, “PubChem BioAssay data set” (2004):
The source made the active and inactive calls.

Tests used:
Insulin-degrading enzyme [1] = biological target: T1, Insulin-degrading enzyme (Homo sapiens, UniProt P14735); experiment: cellular IDE activation of Abeta substrate cleavage – fluorescence polarization, HEK cells, dose response (AID 588439); assay type: functional, cell-based
T1 sequence (P14735 whole entry): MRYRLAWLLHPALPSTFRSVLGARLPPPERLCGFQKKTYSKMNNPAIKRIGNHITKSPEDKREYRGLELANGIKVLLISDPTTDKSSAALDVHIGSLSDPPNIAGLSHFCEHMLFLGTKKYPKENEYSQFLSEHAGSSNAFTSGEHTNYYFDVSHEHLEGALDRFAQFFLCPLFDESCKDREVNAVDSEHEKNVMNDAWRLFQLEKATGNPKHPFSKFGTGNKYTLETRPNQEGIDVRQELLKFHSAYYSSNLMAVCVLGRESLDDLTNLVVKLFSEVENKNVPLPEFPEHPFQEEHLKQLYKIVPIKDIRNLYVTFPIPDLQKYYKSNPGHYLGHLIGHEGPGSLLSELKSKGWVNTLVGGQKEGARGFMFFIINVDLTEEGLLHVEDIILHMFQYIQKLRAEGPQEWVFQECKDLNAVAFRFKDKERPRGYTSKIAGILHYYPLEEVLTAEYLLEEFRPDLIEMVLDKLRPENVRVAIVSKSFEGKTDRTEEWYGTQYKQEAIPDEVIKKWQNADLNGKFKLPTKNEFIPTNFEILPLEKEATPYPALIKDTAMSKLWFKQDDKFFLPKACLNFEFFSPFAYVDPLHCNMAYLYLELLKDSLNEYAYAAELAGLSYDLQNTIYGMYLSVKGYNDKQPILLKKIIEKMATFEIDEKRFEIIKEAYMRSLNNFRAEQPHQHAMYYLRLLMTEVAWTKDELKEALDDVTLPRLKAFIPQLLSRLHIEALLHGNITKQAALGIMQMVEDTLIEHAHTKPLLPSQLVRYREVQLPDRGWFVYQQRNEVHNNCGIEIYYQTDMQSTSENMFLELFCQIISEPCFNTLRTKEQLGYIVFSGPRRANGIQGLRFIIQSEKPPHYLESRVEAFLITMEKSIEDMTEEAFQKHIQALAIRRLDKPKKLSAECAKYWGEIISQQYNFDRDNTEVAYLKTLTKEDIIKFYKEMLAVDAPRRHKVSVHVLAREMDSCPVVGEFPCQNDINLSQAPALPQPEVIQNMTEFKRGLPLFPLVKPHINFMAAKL

HEK293 [2] = experiment: optical interference in Abeta FP readout, dose response, artefact control for IDE activator project, biochemical, fluorescence polarization (AID 588442); assay type: functional, cell-based; settings: Homo sapiens
HEK293 [3] = experiment: membrane integrity loss in HEK cells – cell-based, fluorescence, cytotoxicity control for IDE activator project, dose response (AID 588440); assay type: functional; settings: Homo sapiens;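 also: cytotoxicity by LDH release measuring loss of membrane integrity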
Insulin-degrading enzyme [4] = biological target: T1, Insulin-degrading enzyme; experiment: recombinant IDE activation, cell-free – biochemical, fluorescence polarization, counter-screen for IDE activator project, dose response (AID 588681)
[5] = biological target: T2, Endoribonuclease toxin MazF (Escherichia coli K-12, UniProt P0AE70); experiment: MazEF toxin-antitoxin RNase activation – biochemical, fluorescence, single-stranded RNA substrate, SAR follow-up (AID 588603); assay type: functional
T2 sequence (P0AE70 whole entry): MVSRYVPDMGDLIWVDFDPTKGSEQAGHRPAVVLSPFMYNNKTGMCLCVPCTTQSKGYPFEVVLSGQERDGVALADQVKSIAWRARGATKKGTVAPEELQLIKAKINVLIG

MEF = experiment: SAR analysis of small molecule cytotoxicity of MazEF TA System activators in embryonic fibroblast (MEF) cells. [Related pubchem assays (depositor defined):AID504720, AID504743]; assay type: functional; settings: Mus musculus
[6] = biological target: T2, Endoribonuclease toxin MazF; experiment: SAR analysis of small molecule activators of the MazEF TA System via a fluorescence-based single-stranded RNase assay counterscreen. [Related pubchem assays (depositor defined):AID504720, AID504743]; assay type: functional
Caspase-3 = biological target: T3, Caspase-3 (Homo sapiens, UniProt P42574); assay type: functional;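 also: Dose-response selectivity test against caspase-3 for candidate inhibitors of sentrin-specific proteases (SENPs)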
T3 sequence (P42574 whole entry): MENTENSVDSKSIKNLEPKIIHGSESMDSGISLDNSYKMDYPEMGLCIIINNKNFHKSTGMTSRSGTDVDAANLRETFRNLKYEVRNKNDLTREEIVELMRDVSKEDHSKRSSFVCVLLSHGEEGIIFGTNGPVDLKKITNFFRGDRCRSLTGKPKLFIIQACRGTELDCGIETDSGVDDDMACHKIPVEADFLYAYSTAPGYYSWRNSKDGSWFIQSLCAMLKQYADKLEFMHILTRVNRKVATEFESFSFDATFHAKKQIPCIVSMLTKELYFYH

[7] = biological target: T4, Sentrin-specific protease 6 (Homo sapiens, UniProt Q9GZR1); assay type: functional;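 also: Luminescence-based dose-response confirmatory assay of SENP6 inhibition, following up an ultra-high-throughput screen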
T4 sequence (Q9GZR1 whole entry): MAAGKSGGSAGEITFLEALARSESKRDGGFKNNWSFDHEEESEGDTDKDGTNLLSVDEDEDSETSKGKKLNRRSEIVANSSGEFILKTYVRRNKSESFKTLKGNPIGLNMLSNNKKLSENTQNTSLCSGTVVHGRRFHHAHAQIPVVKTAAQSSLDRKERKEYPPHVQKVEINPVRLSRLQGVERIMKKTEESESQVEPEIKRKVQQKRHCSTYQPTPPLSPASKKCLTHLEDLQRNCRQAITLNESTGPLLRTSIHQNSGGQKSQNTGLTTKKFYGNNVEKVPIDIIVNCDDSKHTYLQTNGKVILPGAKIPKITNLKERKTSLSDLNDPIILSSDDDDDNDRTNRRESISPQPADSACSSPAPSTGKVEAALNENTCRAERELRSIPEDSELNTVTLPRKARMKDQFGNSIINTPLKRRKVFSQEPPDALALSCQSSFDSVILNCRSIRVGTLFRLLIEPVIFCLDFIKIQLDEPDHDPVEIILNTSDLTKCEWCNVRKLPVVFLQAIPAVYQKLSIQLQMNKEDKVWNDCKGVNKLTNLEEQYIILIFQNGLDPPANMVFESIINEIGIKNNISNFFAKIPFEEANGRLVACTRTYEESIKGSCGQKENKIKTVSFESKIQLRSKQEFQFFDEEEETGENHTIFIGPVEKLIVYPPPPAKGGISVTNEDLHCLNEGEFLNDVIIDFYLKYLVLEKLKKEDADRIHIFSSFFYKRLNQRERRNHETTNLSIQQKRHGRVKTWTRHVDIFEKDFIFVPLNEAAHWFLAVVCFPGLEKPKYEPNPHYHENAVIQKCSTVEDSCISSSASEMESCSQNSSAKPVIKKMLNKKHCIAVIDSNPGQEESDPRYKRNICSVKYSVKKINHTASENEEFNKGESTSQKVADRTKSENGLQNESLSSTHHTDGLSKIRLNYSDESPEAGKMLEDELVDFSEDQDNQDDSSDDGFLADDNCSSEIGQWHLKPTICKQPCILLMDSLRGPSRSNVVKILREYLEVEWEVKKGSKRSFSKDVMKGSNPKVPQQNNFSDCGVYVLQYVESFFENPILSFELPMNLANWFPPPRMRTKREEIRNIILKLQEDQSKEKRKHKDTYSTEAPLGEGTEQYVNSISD

[8] = biological target: T5, Sentrin-specific protease 7 (Homo sapiens, UniProt Q9BQF6); assay type: functional;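 also: Luminescence-based dose-response confirmation of ultra-high-throughput screening hits, measuring inhibition of SENP7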
T5 sequence (Q9BQF6 whole entry): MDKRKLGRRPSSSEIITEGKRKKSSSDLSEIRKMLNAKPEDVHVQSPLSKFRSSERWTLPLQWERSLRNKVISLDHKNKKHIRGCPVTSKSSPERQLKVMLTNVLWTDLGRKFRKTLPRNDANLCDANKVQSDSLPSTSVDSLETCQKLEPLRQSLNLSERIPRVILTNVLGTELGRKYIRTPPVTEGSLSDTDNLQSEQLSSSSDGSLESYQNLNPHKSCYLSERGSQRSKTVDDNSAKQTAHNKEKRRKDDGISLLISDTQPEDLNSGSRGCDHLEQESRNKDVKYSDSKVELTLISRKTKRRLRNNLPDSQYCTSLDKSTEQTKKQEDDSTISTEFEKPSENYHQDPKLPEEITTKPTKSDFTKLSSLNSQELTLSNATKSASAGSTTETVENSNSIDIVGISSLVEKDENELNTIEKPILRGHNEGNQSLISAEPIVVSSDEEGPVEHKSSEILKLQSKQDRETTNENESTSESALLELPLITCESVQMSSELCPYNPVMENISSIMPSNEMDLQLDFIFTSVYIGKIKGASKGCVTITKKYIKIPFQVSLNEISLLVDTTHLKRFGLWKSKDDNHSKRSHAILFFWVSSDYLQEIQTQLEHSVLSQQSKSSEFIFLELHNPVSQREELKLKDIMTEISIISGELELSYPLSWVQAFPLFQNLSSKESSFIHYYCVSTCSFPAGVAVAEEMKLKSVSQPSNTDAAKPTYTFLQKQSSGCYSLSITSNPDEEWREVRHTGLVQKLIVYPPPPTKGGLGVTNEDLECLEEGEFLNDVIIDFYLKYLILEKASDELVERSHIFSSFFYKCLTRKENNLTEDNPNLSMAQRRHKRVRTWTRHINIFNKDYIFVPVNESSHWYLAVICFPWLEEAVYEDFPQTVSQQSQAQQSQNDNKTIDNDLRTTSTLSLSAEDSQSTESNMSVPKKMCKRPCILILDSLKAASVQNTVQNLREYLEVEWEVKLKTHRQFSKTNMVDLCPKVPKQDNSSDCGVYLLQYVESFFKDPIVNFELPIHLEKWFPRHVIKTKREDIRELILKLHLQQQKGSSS

[9] = biological target: T6, Sentrin-specific protease 8 (Homo sapiens, UniProt Q96LD8); assay type: functional;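 also: luminescence read-out of SENP8 inhibition, dose-response confirmation following an ultra-high-throughput screen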
T6 sequence (Q96LD8 whole entry): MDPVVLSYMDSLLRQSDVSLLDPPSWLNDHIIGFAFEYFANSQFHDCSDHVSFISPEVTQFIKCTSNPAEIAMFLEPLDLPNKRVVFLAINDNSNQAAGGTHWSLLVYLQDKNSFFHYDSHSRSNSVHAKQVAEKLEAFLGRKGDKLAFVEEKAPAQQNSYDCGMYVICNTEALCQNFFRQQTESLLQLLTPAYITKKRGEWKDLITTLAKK

[10] = biological target: T2, Endoribonuclease toxin MazF; experiment: activation of MazEF endoribonuclease cleavage – biochemical, fluorescence, single-stranded RNA substrate, uHTS hits, dose response (AID 588481); assay type: functional
[11] = biological target: T2, Endoribonuclease toxin MazF; experiment: substrate-only fluorescence increase artefacts – biochemical, single-stranded RNase substrate, counter-screen for MazEF activator project, dose response (AID 588502); assay type: functional
Streptokinase A = biological target: T7, Streptokinase A (Streptococcus pyogenes serotype M1, UniProt P10520); experiment: viability-normalized secreted streptokinase activity reduction – plasminogen activation absorbance, OD405, dose response (AID 1914); assay type: functional, Streptococcus pyogenes M1 GAS;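 also: secreted streptokinase activity via plasminogen activation per viability signal from cell pellet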
T7 sequence (P10520 whole entry): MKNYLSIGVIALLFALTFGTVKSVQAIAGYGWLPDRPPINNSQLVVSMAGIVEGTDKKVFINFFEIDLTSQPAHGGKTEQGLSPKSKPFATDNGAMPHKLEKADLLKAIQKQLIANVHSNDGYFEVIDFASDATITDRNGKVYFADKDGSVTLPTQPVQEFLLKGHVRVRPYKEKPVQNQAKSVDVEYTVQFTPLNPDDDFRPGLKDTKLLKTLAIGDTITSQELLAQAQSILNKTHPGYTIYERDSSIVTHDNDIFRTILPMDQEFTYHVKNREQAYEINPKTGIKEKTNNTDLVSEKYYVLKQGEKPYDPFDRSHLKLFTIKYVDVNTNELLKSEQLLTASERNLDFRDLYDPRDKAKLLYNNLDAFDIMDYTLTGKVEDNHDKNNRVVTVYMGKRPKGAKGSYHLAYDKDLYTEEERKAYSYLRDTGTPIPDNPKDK

Phospholipase A2 = Phospholipase A2 (Homo sapiens, UniProt P04054); assay type: functional;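 also: confirmatory dose-response counterscreen on phospholipase A2, testing hits that came from an ultra-high-throughput screen for ATG4B inhibitors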
Chain of Phospholipase A2 (P04054 whole entry): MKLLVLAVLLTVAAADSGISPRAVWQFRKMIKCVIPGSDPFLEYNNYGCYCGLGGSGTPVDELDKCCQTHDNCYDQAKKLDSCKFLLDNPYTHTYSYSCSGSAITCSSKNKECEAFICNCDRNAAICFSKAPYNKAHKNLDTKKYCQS

Streptococcus = experiment: GAS UMAA2166 growth inhibition – luminescence, BacTiterGlo, counter-screen for streptokinase expression inhibitor project, dose response (AID 1915); assay type: functional, organism-based;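 also: potency for reduction of bacterial viability or growth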
Cysteine protease ATG4B = Cysteine protease ATG4B (Homo sapiens, UniProt Q9Y4P1); assay type: functional;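 also: Fluorescence-based dose-response confirmation assay measuring inhibition of ATG4B activity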
Chain of Cysteine protease ATG4B (Q9Y4P1 whole entry): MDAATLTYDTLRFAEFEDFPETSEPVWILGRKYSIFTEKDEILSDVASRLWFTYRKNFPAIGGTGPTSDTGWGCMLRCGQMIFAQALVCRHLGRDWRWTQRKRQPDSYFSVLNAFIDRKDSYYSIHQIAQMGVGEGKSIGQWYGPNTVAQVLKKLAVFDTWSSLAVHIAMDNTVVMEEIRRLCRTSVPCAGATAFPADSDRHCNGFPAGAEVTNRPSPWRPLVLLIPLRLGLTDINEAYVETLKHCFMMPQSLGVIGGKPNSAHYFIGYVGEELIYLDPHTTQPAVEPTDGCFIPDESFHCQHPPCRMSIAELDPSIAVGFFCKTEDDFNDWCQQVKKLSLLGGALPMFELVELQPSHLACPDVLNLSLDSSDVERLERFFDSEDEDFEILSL

[12] = test system: Streptococcus sp. 'group A'; experiment: Streptococcus pyogenes SK(-)GAS viability under kanamycin – luminescence, BacTiterGlo, confirmation, counter-screen for streptokinase expression inhibitor project, dose response (AID 1900); assay type: functional, organism-based

c1ccc(C2CC3CC4(CCCC4)N2O3)cc1 (centres undefined)
EC50 (Insulin-degrading enzyme [1]): > 54.7 µM (inactive) | EC50 (HEK293 [2]): > 55.9 µM (inactive) | IC50 (HEK293 [3]): > 89.2 µM (inactive) | EC50 (Insulin-degrading enzyme [4]): > 54.7 µM (inactive)

O=[N+]([O-])c1ccc(S(=O)(=O)N/N=C/c2c[nH]c3ccccc23)cc1
EC50 [5]: 56.8 µM (inactive) | CC50 (MEF): > 99 µM (inactive) | EC50 [6]: > 99 µM (inactive)

Cc1ccc2[nH]c(-c3ccc(NC(=O)c4ccco4)cc3)nc2c1
IC50 (Caspase-3): 29.6 µM (active) | IC50 [7]: > 100 µM (inactive) | IC50 [8]: 6.23 µM (active) | IC50 [9]: 30.8 µM (active)

CCSc1nnc(NC(=O)c2ccc(C)cc2)s1
IC50 (Caspase-3): 28 µM (active) | IC50 [7]: > 100 µM (inactive) | IC50 [8]: 9.7 µM (active) | IC50 [9]: > 100 µM (inactive)

CN(C)CCCN(C(=O)COc1ccc(Cl)cc1)c1nc2ccc(F)cc2s1
EC50 (Insulin-degrading enzyme [1]): > 54.7 µM (inactive) | EC50 (HEK293 [2]): > 55.9 µM (inactive) | IC50 (HEK293 [3]): > 29.7 µM (inactive) | EC50 (Insulin-degrading enzyme [4]): > 54.7 µM (inactive)

Cc1[nH]c2ccccc2c1/C=C/c1nc2ccccc2c(=O)n1-c1ccc([N+](=O)[O-])cc1
EC50 [5]: > 99 µM (inactive) | CC50 (MEF): > 99 µM (inactive) | EC50 [10]: > 99 µM (inactive) | EC50 [6]: > 99 µM (inactive) | EC50 [11]: > 99 µM (inactive)

COC(=O)/C=C1\SC(Nc2ccc(Cl)c(Cl)c2)=NC1=O
EC50 (Streptokinase A): 15.4 µM (active) | IC50 (Phospholipase A2): 11 µM (active) | EC50 (Streptococcus): 16.9 µM (active) | IC50 (Cysteine protease ATG4B): 16.9 µM (active) | EC50 [12]: 10 µM (active)
